pIC50: −log10 of the molar value. Like-named read-outs stand apart in the source and are kept apart here.
Columns and labels:
[1] = biological target: T1, human IRAK4 (Homo sapiens, UniProt Q9NWZ3); experiment: IRAK4 MSA (Mobility-Shift Assay) at Km ATP; assay type: biochemical; details: GST-IRAK4 1 nM, ATP 37 μM (Km); read-out: IC50 for inhibiting human IRAK4 kinase
T1 construct: purchased Cama (so in the source)
T1 sequence (Q9NWZ3 1-460): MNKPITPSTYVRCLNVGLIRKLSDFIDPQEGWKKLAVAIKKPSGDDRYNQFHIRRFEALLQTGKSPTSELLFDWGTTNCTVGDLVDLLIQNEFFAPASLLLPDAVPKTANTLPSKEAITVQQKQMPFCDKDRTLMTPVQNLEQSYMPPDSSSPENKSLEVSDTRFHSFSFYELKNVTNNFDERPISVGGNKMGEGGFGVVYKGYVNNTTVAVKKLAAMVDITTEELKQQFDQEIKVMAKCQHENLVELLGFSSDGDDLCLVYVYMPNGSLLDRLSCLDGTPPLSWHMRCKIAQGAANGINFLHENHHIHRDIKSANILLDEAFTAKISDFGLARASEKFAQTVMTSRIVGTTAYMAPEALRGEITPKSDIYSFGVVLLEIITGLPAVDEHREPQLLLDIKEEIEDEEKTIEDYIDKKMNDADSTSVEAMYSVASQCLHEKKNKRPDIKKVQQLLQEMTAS
Method: A recombinant fusion protein of N-terminal GST (glutathione-S-transferase) and human IRAK4 was used as enzyme (GST-IRAK4, kinase IRAK4 (Cama)) at a final concentration of 1 nM; ATP (Sigma) was at a final concentration of 37 μM; the substrates used for the kinase reaction were a 5-FAM (5-carboxyfluorescein)-labeled polypeptide (5-FAM-[…]-COOH) and a substrate peptide FAM-P8 (GL Biochem) at final concentrations of […].
In this assay, 500 μM solutions of the compounds were prepared in 100% DMSO, and serially 4-fold diluted to the 10th concentration gradient with 100% DMSO, followed by a 10-fold dilution in the compound buffer (50 mM HEPES. pH 7.5, 0.00015% Brij-35) to give intermediate dilutions of the compounds at a final concentration of 10 μM-0.04 nM containing 10% DMSO respectively, 5 μL of the dilutions were transferred into a black 384-well plate respectively.
IRAK4 was diluted to 2.5 nM in the kinase buffer (50 mM HEPES, pH 7.5, 0.00015% Brij-35, 2 mM DTT). 10 μL of the IRAK4 dilution was transferred to the 384-well plate and co-incubated with the compound for 10-15 min.
The substrate and ATP were diluted to 12.5 μM and 92.5 μM with reaction buffer (50 mM HEPES, pH 7.5, 0.00015% Brij-35, 10 mM MgCl2), respectively. 10 μL of the dilutions were transferred to a 384-well plate and incubated at 28° C. for 1 h respectively. The reaction was terminated by adding 25 μL of 50 mM EDTA to the 384-well plate.
The inhibition rates of IRAK4 by the compounds were calculated by measuring the rate of phosphorylated substrate using a Caliper EZ Reader (PerkinElmer) and the IC50 values were calculated by XL-fit software.

[2] = tested on: TNF-α release in LPS-induced Balb/c female mice; experiment: Inhibition of TNF-α release in LPS-induced Balb/c female mice; assay type: in vivo, mouse; design: concentration or dose not given beside the values; details: oral gavage 5 h before LPS induction, serum 1.5 h after stimulation
Method: In the normal control groups, the animals received an intraperitoneal injection of normal saline (10 mL/kg) and in the model groups, the animals received LPS stimulation (Sigma CAT #L2630, i.p., 10 mL/kg, 0.2 mg/kg). During the assay, to the test compounds, DMSO, Solutol and 10 mM PBS were sequentially added to prepare a solution or suspension of required concentration for administration. For the vehicle, DMSO, Solutol and 10 mM PBS were mixed in a volume ratio of 5:15:80. In each of the groups, the animals were administered through oral gavage (10 mL/kg) 5 h before LPS (or saline) stimulation at predetermined doses, and euthanized with CO2 at 1.5 h after the stimulation for cardiac blood collection. The whole blood was not anticoagulated, incubated in wet ice for 1.5 h, and centrifuged at 2000×g at 4° C. for 10 min to separate the serum. The serum was frozen at −80° C. for TNF-α assay. Quantification of the TNF-α was done with TNF-α ELISA kit according to the manufacturer's instruction.

[3] = PK assay in rat (intravenous injection and oral gavage); assay type: in vivo; details: plasma, male SD rat; for Cmax: read-out: Peak concentration Cmax; for AUC(0-t): read-out: Area under curve AUC0-t; for AUC(0-inf): read-out: Area under curve AUC0-∞; for MRT: read-out: Average retention time MRT; for half-life: read-out: Half life t1/2 (converted)
Method: The rats used for pharmacokinetic study in the example were male SPF-grade SD rats (B&K Universal, Shanghai).
Route of administration: a single dose by oral gavage or intravenous injection
Sampling points: 0.083 h, 0.25 h, 0.5 h, 1 h, 2 h, 4 h, 6 h, 8 h and 24 h after administration
Sample processing: 0.2 mL of venous blood was collected, and let stand on ice before centrifugation to separate plasma (centrifugation conditions: 8000 rpm, 6 min, 4° C.). The separated plasma was stored at −80° C. before analysis.
Internal standard working solution: An appropriate amount of tolbutamide internal standard stock solution at 645,000 ng/mL was added into a volumetric flask, and was diluted to the volume with methanol. The solution was well mixed to give an internal standard working solution with a concentration of 50 ng/mL.
Sample pretreatment: 50 μL of plasma was added into a 1.5-mL centrifuge tube, and added with 250 μL of internal standard solution (methanol of the same volume for the blank control). The solution was well mixed by vortex, and centrifuged for 5 min at 14000 rpm. 200 μL of the supernatant was transferred into a 96-well sample feeding plate, and loaded onto a LC-MS/MS system.
Column: ACQUITY UPLC BEH C18 1.7 μm (50 mm×2.10 mm)
Mobile phase: A: 0.1% aqueous formic acid; B: 0.1% formic acid in acetonitrile
The data processing system was Analyst software (Applied Biosystems, USA, ver 1.5.5).

[4] = 1 mg/kg, intravenous injection, 1 mpk
[5] = 2 mg/kg, oral administration, 2 mpk, 5% DMSO + 15% Solutol + 80% Saline

Row | SMILES | pIC50 [1] | also measured
1 | COc1cc2nn([C@H]3C[C@H](C(C)(C)O)C3)cc2cc1NC(=O)c1cccc(F)n1 [MY-004-119] | 7.85 | 
2 | COc1cc2nn(C3CC(CO)C3)cc2cc1NC(=O)c1cccc(C(F)(F)F)n1 (centres unmarked) [MY-004-090] | 7.91 | 
3 | CN(C)c1cc2nn([C@H]3CC[C@@H](O)CC3)cc2cc1NC(=O)c1cccc(C(F)(F)F)n1 [MY-004-154] | 8.80 | Inhibition rate of TNF-α [2]: 87.82%
4 | CC(C)(O)c1cc2nn([C@H]3C[C@H](C(C)(C)O)C3)cc2cc1NC(=O)c1cccc(C#N)n1 [MY-004-110] | 7.32 | 
5 | COc1cc2nn(C3CC(C)(O)C3)cc2cc1NC(=O)c1cccc(C(F)(F)F)n1 (centres unmarked) [MY-004-128] | 8.18 | 
6 | CC(C)(O)c1cc2nn([C@H]3CC[C@H](O)CC3)cc2cc1NC(=O)c1cccc(C(F)(F)F)n1 [MY-004-322] | 8.62 | 
7 | C[C@]1(O)CC[C@@H](n2cc3cc(NC(=O)c4cccc(C(F)(F)F)n4)c(-n4cccn4)cc3n2)CC1 [MY-004-227] | 8.77 | 
8 | COc1cc2nn([C@H]3C[C@@H](C(C)(C)O)C3)cc2cc1NC(=O)c1cccc(C(F)(F)F)n1 [MY-004-040] | 7.89 | 
9 | COc1cc2nn(CCN3CC(F)(F)C3)cc2cc1NC(=O)c1cccc(C(F)(F)F)n1 [MY-004-017] | 7.44 | 
10 | C[C@]1(O)CC[C@H](n2cc3cc(NC(=O)c4cccc(C(F)(F)F)n4)c(-n4cccn4)cc3n2)CC1 [MY-004-228] | 8.70 | Inhibition rate of TNF-α [2]: 88.46%
11 | COc1cc2nn([C@H]3C[C@@H](C(=O)OC)C3)cc2cc1NC(=O)c1cccc(C(F)(F)F)n1 [MY-004-099] | 7.46 | 
12 | COc1cc2nn([C@H]3CC[C@@H](O)CC3)cc2cc1NC(=O)c1cccc(C(F)(F)F)n1 [MY-004-127-2] | 8.37 | 
13 | CC(C)(O)[C@H]1C[C@H](n2cc3cc(NC(=O)c4cccc(C(F)(F)F)n4)c(-n4cc(C#N)cn4)cc3n2)C1 [MY-004-229] | 8.08 | 
14 | O=C(Nc1cc2cn([C@H]3CC[C@H](O)CC3)nc2cc1OCC1CC1)c1cccc(C(F)(F)F)n1 [MY-004-217] | 8.66 | 
15 | CC(C)(O)[C@H]1C[C@H](n2cc3cc(NC(=O)c4cccc(C(F)(F)F)n4)c(-c4ccccn4)cc3n2)C1 [MY-004-146] | 8.19 | 
16 | O=C(Nc1cc2cn([C@H]3CC[C@@H](O)CC3)nc2cc1OCC1CC1)c1cccc(C(F)(F)F)n1 [MY-004-218] | 8.29 | 
17 | CC(C)(O)c1cc2nn([C@H]3CC[C@@H](O)CC3)cc2cc1NC(=O)c1cccc(C(F)(F)F)n1 [MY-004-326] | 8.16 | 
18 | COc1cc2nn([C@H]3C[C@H](CO)C3)cc2cc1NC(=O)c1cccc(C(F)(F)F)n1 [MY-004-082] | 8.30 | Cmax ([3]; 1 mg/kg, intravenous injection, 1 mpk, 5% DMSO + 15% Solutol + 80% Saline): 1320 ng/mL; AUC(0-t) [3, 4]: 790 ng·h/mL; AUC(0-inf) [3, 4]: 793 ng·h/mL; MRT [3, 4]: 31.2 min; clearance ([3]; 1 mg/kg, intravenous injection, 1 mpk, read-out: Clearance CL): 21.9 mL/min/kg; half-life [3, 4]: 30.6 min; Vd ([3]; 1 mg/kg, intravenous injection, 1 mpk, read-out: Volume of distribution at steady state VZ): 0.93 L/kg; AUC(0-t) [3, 5]: 416 ng·h/mL; AUC(0-inf) [3, 5]: 424 ng·h/mL; MRT [3, 5]: 161 min; bioavailability ([3]; 2 mg/kg, oral administration, 2 mpk, 5% DMSO + 15% Solutol + 80% Saline, read-out: Bioavailability F): 26.3%; half-life [3, 5]: 65.4 min; Cmax [3, 5]: 114 ng/mL; Tmax ([3]; 2 mg/kg, oral administration, 2 mpk, 5% DMSO + 15% Solutol + 80% Saline, read-out: Time to peak tmax): 30 min
19 | COc1cc2nn([C@H]3C[C@H](C(C)(C)O)C3)cc2cc1NC(=O)c1cccc(C)n1 [MY-004-093] | 7.89 | 
20 | COc1cc2nn([C@H]3C[C@H](C(C)(C)O)C3)cc2cc1NC(=O)c1cnc2ccccc2n1 [MY-004-094] | 7.39 | 
21 | COc1cc2nn(C3CC(O)C3)cc2cc1NC(=O)c1cccc(C(F)(F)F)n1 (centres unmarked) [MY-004-084] | 8.02 | 
22 | CN(C)c1cc2nn([C@H]3C[C@H](C(C)(C)O)C3)cc2cc1NC(=O)c1cccc(F)n1 [MY-004-118] | 7.78 | 
23 | COc1cc2nn([C@H]3C[C@H](C(=O)OC)C3)cc2cc1NC(=O)c1cccc(C(F)(F)F)n1 [MY-004-100] | 7.96 | 
24 | COc1cc2nn(C3CC(OC)C3)cc2cc1NC(=O)c1cccc(C(F)(F)F)n1 (centres unmarked) [MY-004-168] | 8.20 | 
25 | CN(C)c1cc2nn([C@H]3CC[C@](C)(O)CC3)cc2cc1NC(=O)c1cccc(C(F)(F)F)n1 [MY-004-167] | 8.57 | 
